Experimental data as given in US9458165B2, “DOT1L inhibitors” (Dana-Farber Cancer Institute, Inc., priority 2014, dated 2016).
Read-outs that look alike come from different tables or passages of the source.

Columns and labels:
[1] = tested on: the related gene; test: Gene expression assay; assay type: cell-based; details: compared to CC001 and EPZ4777, FIG. 6
[2] = Pharmacokinetic study, IP 100 mg/kg, whole blood concentration; assay type: in vivo, male CD1 mice; details: for AUC(0-inf) / AUC(0-t) / Cmax / half-life / Tmax / concentration at 0.083 hr / concentration at 0.25 hr / concentration at 0.5 hr / concentration at 1 h / concentration at 2 h / concentration at 4 h / concentration at 8 h / concentration at 24 h: male, CD1, mouse, ip, 100 mg/kg
Procedure: Pharmacokinetic studies in CD1 mice using the compound of Example 1 (i.e. CC-006) (100 mg/kg, IP dose) were also performed.

[3] = read-out: Concentration Mouse#1
[4] = read-out: Concentration Mouse#2
[5] = read-out: Concentration Mouse#3

For `CC(C)N(C[C@H]1C[C@@H](n2cc(C#N)c3c(N)ncnc32)[C@H](O)[C@@H]1O)C1CC(CCc2nc3ccc(C(C)(C)C)cc3[nH]2)C1` (stereo partly drawn) [Example 1, 4-amino-7-((1R,2S,3R,4R)-4-(((3-(2-(6-(tert-butyl)-1H-benzo[d]imidazol-2-yl)ethyl)cyclobutyl)(isopropyl)amino)methyl)-2,3-dihydroxycyclopentyl)-7H-pyrrolo[2,3-d]pyrimidine-5-carbonitrile], the “down regulation of the related gene” value [1] was “down regulates the related gene more efficiently than known DOT1L inhibitor CC001 and very similar to EPZ4777”, the AUC(0-inf) ([2]; read-out: AUCINF Mean) was 86900 ng·h/mL and the AUC(0-inf) ([2]; read-out: AUCINF Mouse#1) was 58900 ng·h/mL. It also gave an AUC(0-inf) ([2]; read-out: AUCINF Mouse#2) of 72900 ng·h/mL, an AUC(0-inf) ([2]; read-out: AUCINF Mouse#3) of 129000 ng·h/mL and an AUC(0-t) ([2]; read-out: AUClast Mean) of 84400 ng·h/mL. It also gave an AUC(0-t) ([2]; read-out: AUClast Mouse#1) of 57100 ng·h/mL, an AUC(0-t) ([2]; read-out: AUClast Mouse#2) of 70500 ng·h/mL and an AUC(0-t) ([2]; read-out: AUClast Mouse#3) of 126000 ng·h/mL. It also gave a Cmax ([2]; read-out: Cmax Mean) of 15300 ng/mL, a Cmax ([2]; read-out: Cmax Mouse#1) of 13100 ng/mL and a Cmax ([2]; read-out: Cmax Mouse#2) of 15000 ng/mL. It also gave a Cmax ([2]; read-out: Cmax Mouse#3) of 17800 ng/mL, a half-life ([2]; read-out: Terminal t1/2 Mean (converted)) of 4.65 h and a half-life ([2]; read-out: Terminal t1/2 Mouse#1 (converted)) of 4.64 h. It also gave a half-life ([2]; read-out: Terminal t1/2 Mouse#2 (converted)) of 4.8 h, a half-life ([2]; read-out: Terminal t1/2 Mouse#3 (converted)) of 4.51 h and a Tmax ([2]; read-out: Tmax Mean) of 0.833 h. For the same compound, the Tmax ([2]; read-out: Tmax Mouse#1) was 1 h, the Tmax ([2]; read-out: Tmax Mouse#2) was 1 h and the Tmax ([2]; read-out: Tmax Mouse#3) was 0.5 h. The concentration at 0.083 hr ([2]; read-out: Concentration Mean) was 5350 ng/mL, the concentration at 0.083 hr [2, 3] was 4600 ng/mL and the concentration at 0.083 hr [2, 4] was 5940 ng/mL. It also gave a concentration at 0.083 hr [2, 5] of 5500 ng/mL, a concentration at 0.25 hr ([2]; read-out: Concentration Mean) of 12700 ng/mL and a concentration at 0.25 hr [2, 3] of 12000 ng/mL. The concentration at 0.25 hr [2, 4] was 13400 ng/mL, the concentration at 0.25 hr [2, 5] was 12800 ng/mL and the concentration at 0.5 hr ([2]; read-out: Concentration Mean) was 14300 ng/mL. For the same compound, the concentration at 0.5 hr [2, 3] was 11100 ng/mL, the concentration at 0.5 hr [2, 4] was 14100 ng/mL and the concentration at 0.5 hr [2, 5] was 17800 ng/mL. The concentration at 1 h ([2]; read-out: Concentration Mean) was 15200 ng/mL, the concentration at 1 h [2, 3] was 13100 ng/mL and the concentration at 1 h [2, 4] was 15000 ng/mL. The concentration at 1 h [2, 5] was 17500 ng/mL, the concentration at 2 h ([2]; read-out: Concentration Mean) was 12600 ng/mL and the concentration at 2 h [2, 3] was 10500 ng/mL. For the same compound, the concentration at 2 h [2, 4] was 11300 ng/mL, the concentration at 2 h [2, 5] was 16100 ng/mL and the concentration at 4 h ([2]; read-out: Concentration Mean) was 7450 ng/mL. The concentration at 4 h [2, 3] was 4210 ng/mL, the concentration at 4 h [2, 4] was 5380 ng/mL and the concentration at 4 h [2, 5] was 12800 ng/mL. It also gave a concentration at 8 h ([2]; read-out: Concentration Mean) of 2000 ng/mL, a concentration at 8 h [2, 3] of 957 ng/mL and a concentration at 8 h [2, 4] of 1460 ng/mL. It also gave a concentration at 8 h [2, 5] of 3570 ng/mL, a concentration at 24 h ([2]; read-out: Concentration Mean) of 382 ng/mL and a concentration at 24 h [2, 3] of 266 ng/mL. The concentration at 24 h [2, 4] was 350 ng/mL, the concentration at 24 h [2, 5] was 531 ng/mL and the “Concentration Mean” value ([2]; sampling time 0 hr) was “BQL”. The “Concentration Mouse#1” value ([2]; sampling time 0 hr) was “BQL”, the “Concentration Mouse#2” value ([2]; sampling time 0 hr) was “BQL” and the “Concentration Mouse#3” value ([2]; sampling time 0 hr) was “BQL”.
